For 15 compounds, viability, T/C and IC50 results are on record in PubChem BioAssay AID1963871 (Molecular Pharmacology Branch, DTP, NCI, 2024).

This assay concerns KRAS-mutant PDC multicell tumor spheroid viability. Briefly: Anticancer human tumor 521955-158-R2-J5-PDC patient-derived pancreatic carcinoma cell line growth inhibition [KRAS2]. To be noted: for viability, T/C: stronger effect = lower value. An excerpt: Multicellular complex tumor spheroid response to RAS pathway inhibitors in combination with a targeted agents in patient-derived cell lines with oncogenic KRAS variants from multiple cancer types
A high-throughput screen of multi-cell type tumor spheroids was designed to identify active combinations of targeted small molecules and KRAS pathway inhibitors. Complex spheroids include a stromal component modeled by human endothelial cells (HUVEC) and fibroblasts modeled by human mesenchymal stem cells (MSCs). The concentration ranges selected for each drug and investigational agent were based upon clinically achievable concentrations if the clinical Cmax of the agent was known.
Compounds. The drugs and investigational agents: BI-3406 (NSC825286), BAY-293 (NSC824723), batoprotafib (TNO155; NSC825523), sotorasib (AMG 510; NSC818433), MRTX1257 (NSC819558), elimusertib (BAY 1895344; NSC800525), molibresib (GSK525762; NSC774829), temuterkib (LY3214996; NSC803410), venetoclax (NSC766270), alisertib (NSC759677), olaparib (NSC753686), talazoparib (NSC767125), erdafitinib (NSC781556), ipatasertib (NSC767898), cabozantinib (NSC761068), nintedanib (NSC756659), abemaciclib (NSC768073), docetaxel (NSC628503), trametinib (NSC758246), and sapanisertib (NSC764658) were obtained from the National Cancer Institute (NCI) Developmental Therapeutics Program Chemical Repository. The FDA-approved anticancer drug set is available from the Developmental Therapeutics Program. […] The stock solutions were prepared in dimethyl sulfoxide (DMSO, Sigma-Aldrich, St. Louis, MO, cat. D2650) at 800-fold the tested concentration and stored at -70 degrees C prior to their use. All drugs and investigational agents were tested over a range starting from a high concentration at or near the clinical Cmax and decreasing in half-log increments. If the clinical Cmax for an agent had not been determined, the highest concentration tested was 10 microM.
Cell Culture. All cells were maintained in an incubator at 37 degrees C and 5% CO2 with 95% humidity. The PDC lines were cultured according to standard operating procedures established by the NCI PDMR (https://pdmr.cancer.gov/sops/default.htm). Briefly, all PDCs were thawed and cultured in Matrigel-coated flasks prepared with a working solution of 1X Ham's F-12 nutrient mix, without supplementation (Invitrogen, Waltham, MA, cat. 11765054), 100 U/mL penicillin-streptomycin (Invitrogen, cat. 15140122), and 2.5% Matrigel (Corning Inc., Corning, NY, cat. 354248) for the first three passages. All PDCs were cultured in complete DMEM/F-12 media containing advanced DMEM/F-12 (Invitrogen, cat. 12634028), 4.9% defined fetal bovine serum, heat inactivated (HyClone Laboratories Inc., Logan, UT, cat. SH30070.03HI), 389 ng/mL hydrocortisone (Sigma-Aldrich, cat. H4001), 9.7 ng/mL human EGF recombinant protein (Invitrogen, cat. PHG0313), 23.4 microg/mL adenine (Sigma-Aldrich, cat. A2786), 97.3 U/mL penicillin-streptomycin (Invitrogen, cat. 15140122), 1.9 mM L-glutamine (Invitrogen, cat. 25030081), and 9.7 microM Y-27632 dihydrochloride (Tocris Bioscience, Bristol, United Kingdom, cat. 1254). The PDCs were cultured in complete DMEM/F12 media without 9.7 microM Y-27632 dihydrochloride for at least two passages prior to the screen. The established cell line HOP-62 was cultured in RPMI 1640 medium, HEPES (Invitrogen, cat. 22400105) with 10% defined fetal bovine serum (HyClone Laboratories Inc., cat. SH30070.03) and 2 mM L-glutamine (Invitrogen, cat. 25030081). The pooled donor HUVEC were cultured in endothelial cell growth medium 2 (PromoCell, Heidelberg, Germany, cat. C-22011) and the hMSC were cultured in mesenchymal stem cell growth medium 2 (PromoCell, cat. C-28009). For all experiments, HUVEC and hMSC were used at passages </=5, while the malignant cell lines were used at passages </=15. […]

“And” between values parts separate entries of the source, which are not always exact repeats. Equal entries are not always repeated.
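Also: viability read after seven days of drug exposure.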

For `CC(=O)Nc1cccc(-n2c(=O)n(C3CC3)c(=O)c3c(Nc4ccc(I)cc4F)n(C)c(=O)c(C)c32)c1`, the viability, T/C runs as follows: (compound 0.0001 µM) 77.7% [middle of 5 runs]; (compound 0.000316 µM) 47.2% [middle of 5 runs]; (compound 0.001 µM) 36.5% [middle of 5 runs]; (compound 0.00316 µM) 29.1% [middle of 5 runs]; (compound 0.01 µM) 24.1% [middle of 5 runs]; (compound 0.0316 µM) 17.4% [middle of 4 runs]. Moreover, under “curve of compound”, the IC50 is 0.337 nM [middle of 5 runs].
Turning to `CC(=O)OC12COC1CC(O)C1(C)C(=O)C(O)C3=C(C)C(OC(=O)C(O)C(NC(=O)OC(C)(C)C)c4ccccc4)CC(O)(C(OC(=O)c4ccccc4)C21)C3(C)C` (stereo unspecified), the viability, T/C reads like this: (compound 0.01 µM) 22.3% [middle of 5 runs]; (compound 0.0316 µM) 15.3% [middle of 5 runs]; (compound 0.1 µM) 14.2% [middle of 5 runs]; (compound 0.316 µM) 15.2% [middle of 5 runs]; (compound 1 µM) 18.1% [middle of 5 runs]; (compound 3.16 µM) 21.9% [middle of 5 runs]. Besides, the IC50 (curve of compound) is under 0.01 µM.
For the compound `CC(C)NCC(C(=O)N1CCN(c2ncnc3c2C(C)CC3O)CC1)c1ccc(Cl)cc1` (stereo unspecified), the viability, T/C by setting is: (compound 0.0316 µM) 100% [middle of 5 runs]; (compound 0.1 µM) 102% [middle of 5 runs]; (compound 0.316 µM) 83.8% [middle of 5 runs]; (compound 1 µM) 80.8% [middle of 5 runs]; (compound 3.16 µM) 84.4% [middle of 5 runs]; (compound 10 µM) 66.7% [middle of 5 runs]. Further, the IC50 (curve of compound) is over 10 µM.
On to `CC(C)n1nc(-c2ccc3oc(N)nc3c2)c2c(N)ncnc21`, for which the viability, T/C (compound 0.000316 µM) is 101% [middle of 5 runs]; the viability, T/C (compound 0.001 µM) was 87.6% [middle of 5 runs]; the viability, T/C (compound 0.00316 µM) is 66.9% [middle of 5 runs]; the viability, T/C (compound 0.01 µM) was 48.9% [middle of 5 runs]; the viability, T/C (compound 0.0316 µM) is 35.8% [middle of 5 runs]; the viability, T/C (compound 0.1 µM) was 25.9% [middle of 5 runs]. Under “curve of compound”, the IC50 is 9.42 nM [middle of 5 runs].
As to `CC1(C)CCC(CN2CCN(c3ccc(C(=O)NS(=O)(=O)c4ccc(NCC5CCOCC5)c([N+](=O)[O-])c4)c(Oc4cnc5[nH]ccc5c4)c3)CC2)=C(c2ccc(Cl)cc2)C1`, the viability, T/C (compound 0.0316 µM) was 99.7% [middle of 5 runs]; the viability, T/C (compound 0.1 µM) was 104% [middle of 5 runs]; the viability, T/C (compound 0.316 µM) is 105% [middle of 5 runs]; the viability, T/C (compound 1 µM) was 111% [middle of 5 runs]. Moreover, for the setting “curve of compound”, the IC50 is 6.08 µM [middle of 5 runs].
Regarding `CC1COCCN1c1cc(-c2ccnn2C)c2ccnc(-c3ccn[nH]3)c2n1` (stereo unspecified), the viability, T/C (compound 0.01 µM) is 97.7% [middle of 5 runs]; the viability, T/C (compound 0.1 µM) is 12.3% [middle of 5 runs]; the viability, T/C (compound 0.316 µM) is 13.6% [middle of 5 runs]; the viability, T/C (compound 1 µM) was 21.9% [middle of 5 runs]; the viability, T/C (compound 3.16 µM) was 25.1% [middle of 5 runs]. In addition, for the setting “curve of compound”, the IC50 was 34.4 nM [middle of 5 runs].
Consider `CC1OCC2(CCN(c3cnc(Sc4ccnc(N)c4Cl)c(N)n3)CC2)C1N` (stereo unspecified), for which, for the setting “compound 0.0316 µM”, the viability, T/C is 84.3% and 94% and 83.1%. Further, the half-maximal inhibitory concentration (IC50) is, setting by setting: (compound alone, run of 09/02/2021) > 10 µM and 4.03 µM; (curve of compound) over 10 µM.
Turning to `CCN1CCN(Cc2ccc(Nc3ncc(F)c(-c4cc(F)c5nc(C)n(C(C)C)c5c4)n3)nc2)CC1`, the viability, T/C is, setting by setting: (compound 0.00316 µM) 99% [middle of 5 runs]; (compound 0.01 µM) 98.1% [middle of 5 runs]; (compound 0.0316 µM) 87.7% [middle of 5 runs]; (compound 0.1 µM) 90.7% [middle of 5 runs]; (compound 0.316 µM) 99.1% [middle of 5 runs]; (compound 1 µM) 87.5% [middle of 5 runs]. The half-maximal inhibitory concentration (IC50) (curve of compound) was over 1 µM.
Take `CCNC(=O)CC1N=C(c2ccc(Cl)cc2)c2cc(OC)ccc2-n2c(C)nnc21` (stereo unspecified): the viability, T/C runs as follows: (compound 0.0316 µM) 98.9% [middle of 5 runs]; (compound 0.1 µM) 92.1% [middle of 5 runs]; (compound 0.316 µM) 63% [middle of 5 runs]; (compound 1 µM) 45% [middle of 5 runs]; (compound 3.16 µM) 37.6% [middle of 5 runs]; (compound 10 µM) 34.2% [middle of 5 runs]. Further, where the note is “curve of compound”, the IC50 was 692 nM [middle of 5 runs].
In the case of `CN(C)C/C=C/C(=O)Nc1cc2c(Nc3ccc(F)c(Cl)c3)ncnc2cc1O[C@H]1CCOC1`, the viability, T/C is, setting by setting: (compound 0.000316 µM) 105% [middle of 5 runs]; (compound 0.001 µM) 98.6% [middle of 5 runs]; (compound 0.00316 µM) 96.5% [middle of 5 runs]; (compound 0.01 µM) 92.4% [middle of 5 runs]; (compound 0.0316 µM) 87.8% [middle of 5 runs]. For the same compound, for the setting “curve of compound”, the IC50 is over 0.1 µM.
With `COc1cc(Nc2ncc3c(n2)-c2ccc(Cl)cc2C(c2c(F)cccc2OC)=NC3)ccc1C(=O)O`, the viability, T/C is, setting by setting: (compound 0.0316 µM) 50.2% [middle of 5 runs]; (compound 0.1 µM) 39.8% [middle of 5 runs]; (compound 0.316 µM) 45.3% [middle of 5 runs]; (compound 1 µM) 47.9% [middle of 5 runs]; (compound 3.16 µM) 46.5% [middle of 5 runs]; (compound 10 µM) 41.2% [middle of 5 runs]. For the setting “curve of compound”, the concentration for half-maximal inhibition (IC50) is under 0.0316 µM.
`COc1cc(OC)cc(N(CCNC(C)C)c2ccc3ncc(-c4cnn(C)c4)nc3c2)c1`: the viability, T/C reads like this: (compound 0.0316 µM) 94.3% [middle of 5 runs]; (compound 0.1 µM) 99.1% [middle of 5 runs]; (compound 0.316 µM) 105% [middle of 5 runs]; (compound 1 µM) 123% [middle of 5 runs]; (compound 10 µM) 0.56% [middle of 5 runs]. Also, where the note is “curve of compound”, the IC50 was 6.06 µM [middle of 4 runs].
For `Cn1nccc1Nc1nccc(-c2cc3c(s2)C(C)(C)N(CCN2CCOCC2)C3=O)n1`, the viability, T/C runs as follows: (compound 0.0316 µM) 91.2% [middle of 5 runs]; (compound 0.1 µM) 86.3% [middle of 5 runs]; (compound 0.316 µM) 60.6% [middle of 5 runs]; (compound 1 µM) 51% [middle of 5 runs]; (compound 3.16 µM) 32.7% [middle of 5 runs]; (compound 10 µM) 22.6% [middle of 5 runs]. Under “curve of compound”, the half-inhibitory concentration (IC50) was 902 nM [middle of 5 runs].
Turning to `Cn1ncnc1[C@H]1c2n[nH]c(=O)c3cc(F)cc(c23)N[C@@H]1c1ccc(F)cc1`, the viability, T/C reads like this: (compound 0.000316 µM) 104% [middle of 5 runs]; (compound 0.001 µM) 104% [middle of 5 runs]; (compound 0.00316 µM) 97.1% [middle of 5 runs]; (compound 0.01 µM) 90.9% [middle of 5 runs]; (compound 0.0316 µM) 90% [middle of 5 runs]; (compound 0.1 µM) 82.8% [middle of 5 runs]. The IC50 (curve of compound) is over 0.1 µM.
Take `O=C(c1cc(Cc2n[nH]c(=O)c3ccccc23)ccc1F)N1CCN(C(=O)C2CC2)CC1`: the viability, T/C was 99% [middle of 5 runs] (compound 0.0316 µM); 95.1% [middle of 5 runs] (compound 0.1 µM); 93.8% [middle of 5 runs] (compound 0.316 µM); 94.8% [middle of 5 runs] (compound 1 µM); 89.3% [middle of 5 runs] (compound 3.16 µM); 61% [middle of 5 runs] (compound 10 µM). Further, under “curve of compound”, the IC50 was over 10 µM.
